Measured values reported in PMC8879074, “A Novel Small Molecular Prostaglandin Receptor EP4 Antagonist, L001, Suppresses Pancreatic Cancer Metastasis” (Molecules, 2022).

Columns and labels:
[1] = tested on: ERK1/2 phosphorylation; test: Western blotting of PGE2-induced ERK1/2 phosphorylation; assay type: cell-based; settings: pre-incubation 20 min, then 30 nM PGE2 for 5 min; dose-dependent
[2] = target: T1, human EP1 (Homo sapiens, UniProt P34995); test: Calcium flux assay, human EP1; assay type: cell-based; settings: CHO-Gα16 cells, PGE2 (EC80)
T1 construct: expressed in transfected cells; host or cells: CHO-Gα16
T1 sequence (P34995 1-402): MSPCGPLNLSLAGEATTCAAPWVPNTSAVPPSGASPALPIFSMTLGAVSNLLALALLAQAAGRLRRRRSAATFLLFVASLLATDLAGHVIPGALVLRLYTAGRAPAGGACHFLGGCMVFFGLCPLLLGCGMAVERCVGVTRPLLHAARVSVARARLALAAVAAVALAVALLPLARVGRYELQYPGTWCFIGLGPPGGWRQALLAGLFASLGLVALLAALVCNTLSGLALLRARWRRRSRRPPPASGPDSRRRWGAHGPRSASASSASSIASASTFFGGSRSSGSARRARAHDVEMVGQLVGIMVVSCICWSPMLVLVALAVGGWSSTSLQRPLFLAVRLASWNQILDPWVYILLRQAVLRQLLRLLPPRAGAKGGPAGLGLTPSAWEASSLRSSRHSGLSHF
Protocol: (§1) Calcium flux assay was conducted as described in our previous study. Briefly, CHO-Gα16 cells were transfected, respectively, with human EP1, human EP2, human EP3, human EP4, monkey EP4, mouse EP4 and rat EP4 overexpression constructs using lipofectamine 2000 according to the manufacturer’s manual. Cells were then seeded into a 96-well black plate with a cell density of 2 × 10^4 cells/100 μL per well for a 16-h culture. On the next day, cells were incubated for 45 min with reagents (100 μL/well) of Calcium-5 Assay Kit (Molecular Devices, San Jose, CA, USA). Then, cells were pre-treated with indicated concentrations of L001 for 15 min and stimulated with PGE2 (EC80). The calcium flux was detected subsequently by a Flexstation® 3 Multi-Mode Microplate Reader (Molecular Devices, San Jose, CA, USA).

[3] = target: T2, human EP3 (Homo sapiens, UniProt P43115); test: Calcium flux assay, human EP3; assay type: cell-based; settings: CHO-Gα16 cells, PGE2 (EC80)
T2 construct: expressed in transfected cells; host or cells: CHO-Gα16
T2 sequence (P43115 1-390): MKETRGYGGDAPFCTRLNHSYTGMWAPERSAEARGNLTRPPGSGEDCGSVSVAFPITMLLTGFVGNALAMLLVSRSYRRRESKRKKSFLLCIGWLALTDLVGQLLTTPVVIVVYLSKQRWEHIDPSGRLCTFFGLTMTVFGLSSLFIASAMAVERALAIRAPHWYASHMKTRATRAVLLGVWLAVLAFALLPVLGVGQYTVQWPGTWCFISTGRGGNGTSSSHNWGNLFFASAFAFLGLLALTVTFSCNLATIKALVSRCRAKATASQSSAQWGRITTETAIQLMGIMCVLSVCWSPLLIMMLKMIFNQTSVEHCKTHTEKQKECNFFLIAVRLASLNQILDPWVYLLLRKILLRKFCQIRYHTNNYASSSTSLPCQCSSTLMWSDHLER
Protocol: as §1

[4] = target: T3, mouse EP4 (Mus musculus, UniProt P32240); test: Calcium flux assay, mouse EP4; assay type: cell-based
T3 construct: expressed in transfected cells; host or cells: CHO-Gα16
T3 sequence (P32240 whole entry): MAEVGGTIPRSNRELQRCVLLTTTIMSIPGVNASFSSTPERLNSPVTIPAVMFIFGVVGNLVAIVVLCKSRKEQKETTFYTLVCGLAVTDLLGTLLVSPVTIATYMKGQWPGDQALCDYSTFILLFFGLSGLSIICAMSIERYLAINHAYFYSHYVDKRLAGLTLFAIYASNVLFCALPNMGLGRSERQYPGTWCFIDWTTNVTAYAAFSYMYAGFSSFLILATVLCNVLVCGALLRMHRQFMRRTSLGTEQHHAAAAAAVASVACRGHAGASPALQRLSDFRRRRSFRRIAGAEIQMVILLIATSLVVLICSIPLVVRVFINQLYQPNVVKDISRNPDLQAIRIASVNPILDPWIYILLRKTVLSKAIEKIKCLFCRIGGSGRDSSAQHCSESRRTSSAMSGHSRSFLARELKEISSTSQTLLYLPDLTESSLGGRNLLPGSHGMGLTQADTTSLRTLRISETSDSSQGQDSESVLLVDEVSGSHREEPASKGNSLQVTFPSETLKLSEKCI
Protocol: as §1

[5] = target: T4, rat EP4 (Rattus norvegicus, UniProt P43114); test: Calcium flux assay, rat EP4; assay type: cell-based
T4 construct: expressed in transfected cells; host or cells: CHO-Gα16
T4 sequence (P43114 whole entry): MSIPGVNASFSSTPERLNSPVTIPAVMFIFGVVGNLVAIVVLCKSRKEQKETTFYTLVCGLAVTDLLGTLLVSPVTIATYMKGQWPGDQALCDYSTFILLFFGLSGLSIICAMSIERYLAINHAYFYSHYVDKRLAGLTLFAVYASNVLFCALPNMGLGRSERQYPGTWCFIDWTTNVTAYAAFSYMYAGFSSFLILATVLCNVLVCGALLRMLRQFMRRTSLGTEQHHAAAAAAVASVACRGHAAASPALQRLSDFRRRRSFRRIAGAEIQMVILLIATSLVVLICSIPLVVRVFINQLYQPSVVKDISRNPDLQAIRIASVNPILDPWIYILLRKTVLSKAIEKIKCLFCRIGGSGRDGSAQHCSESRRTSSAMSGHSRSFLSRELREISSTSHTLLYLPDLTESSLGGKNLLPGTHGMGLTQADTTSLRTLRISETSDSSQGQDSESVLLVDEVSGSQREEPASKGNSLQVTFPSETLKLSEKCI
Protocol: as §1

[6] = tested on: BxPC-3 cells; test: Transwell migration assay, BxPC-3; assay type: cell-based, human; settings: BxPC-3; with PGE2; 24 h
Protocol: The transwell assay was conducted as described previously, using 8 μm pore transwell inserts (Corning, NY, USA). Cells were suspended in serum-free DMEM and seeded into upper chambers at appropriate density. The bottom chamber was filled with DMEM supplemented with 10% fetal bovine serum and indicated concentrations of PGE2. The compounds were added in both upper and bottom chambers. […] Migrated cells were counted and quantified using image J.

[7] = tested on: BxPC-3 cells; test: Wound healing assay, BxPC-3; assay type: cell-based, human; settings: 0.1 μM PGE2, 24 h, dose-dependent
Protocol: The wound healing assay was performed according to a standard protocol as described before. Briefly, Pan02 and BxPC-3 cells were grown as a confluent monolayer in 12-well plates (Corning, Corning, NY, USA) overnight and starved with serum-free medium for 6 h. The monolayer cells were disrupted with a P100 micropipette tip (JET BIOFIL, Guangzhou, China) and rinsed with PBS to remove detached cells. Medium containing different concentrations of compounds was added subsequently. After 24 h, treated cells were stained with 2 μM calcein-AM (Yeasen, Shanghai, China) for 20 min and washed with PBS. Photos were taken of the area in the scraped zone of each dish at 100× magnification by using an inverted fluorescent microscope (OLYMPUS, Tokyo, Japan).

[8] = tested on: Pan02 cells; test: 3D Matrigel tumor spheroid invasion assay, Pan02; assay type: cell-based, murine; settings: 0.1 μM PGE2, day 7
Protocol: (§2) The 3D Matrigel invasion assay was performed as described. Pan02 and BxPC-3 cells were plated above a layer of Matrigel (ThermoFisher, Shanghai, China) and covered with growth medium containing 10% Matrigel. The culture medium containing different concentrations of compounds was changed every two days. After 7 days, cells with stellate invasive structure were photographed (OLYMPUS, Tokyo, Japan).

[9] = tested on: BxPC-3 cells; test: 3D Matrigel tumor spheroid invasion assay, BxPC-3; assay type: cell-based, human; settings: 0.1 μM PGE2, day 7
Protocol: as §2

[10] = tested on: YAP, CYR61 and CTGF mRNA in Pan02 cells; test: Real-time qPCR of YAP and YAP target genes, Pan02; assay type: cell-based, murine; settings: PGE2 0.1 μM, compound 10 μM, 12 h
Protocol: (§3) Total RNA was extracted from cells using TRIzol reagent. The cDNA was synthesized by RT-PCR kit (Vazyme Biotech, Nanjing, China). The band intensity was determined by the gel image analysis system (Bio-Rad, Hercules, CA, USA). SYBR Green-based qPCR (Yeason, Shanghai, China) was conducted subsequently. Relative mRNA levels of target genes were normalized with β-actin. The sequences of primers are listed in Supplementary Table S1. The raw data are listed in Supplementary Table S2.

[11] = tested on: YAP, CYR61, CTGF, Vimentin, Snail, E-cadherin mRNA in BxPC-3 cells; test: Real-time qPCR of YAP, YAP target genes and EMT markers, BxPC-3; assay type: cell-based, human; settings: 12 h
Protocol: as §3

[12] = target: EP4 (Homo sapiens, UniProt P35408); test: TANGO assay (EP4/β-arrestin2 interaction); assay type: cell-based; set-up: tTA transcription factor (C); expressed in transfected cells; host or cells: CHO-K1
EP4, sequence (P35408 whole entry): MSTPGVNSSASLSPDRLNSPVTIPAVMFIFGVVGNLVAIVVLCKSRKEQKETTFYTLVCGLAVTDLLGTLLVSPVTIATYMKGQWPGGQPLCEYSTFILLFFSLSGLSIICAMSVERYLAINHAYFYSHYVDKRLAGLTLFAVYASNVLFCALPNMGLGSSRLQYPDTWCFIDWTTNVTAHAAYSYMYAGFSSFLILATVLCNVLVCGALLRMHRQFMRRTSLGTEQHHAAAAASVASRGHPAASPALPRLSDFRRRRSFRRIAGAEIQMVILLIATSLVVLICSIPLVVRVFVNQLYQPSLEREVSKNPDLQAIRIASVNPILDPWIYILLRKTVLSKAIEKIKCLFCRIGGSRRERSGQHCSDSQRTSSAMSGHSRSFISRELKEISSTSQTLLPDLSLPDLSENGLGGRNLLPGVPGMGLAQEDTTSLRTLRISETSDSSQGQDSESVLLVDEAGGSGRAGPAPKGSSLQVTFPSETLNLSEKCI
Protocol: TANGO assay was performed as described previously with some modification. Briefly, CHO-K1 cells were co-transfected with plasmids of EP4-TANGO, β-arrestin-TEV and tTA-luc at a ratio of 0.5:1:1. After 4 h, transfected cells were seeded into 96-well plates and cultured overnight. Then, cells were starved for 5 h and treated with different concentrations of compounds. After incubation for 16 h, cells were lysed and the luciferase activities were determined using Dual-Luciferase Reporter Assay Kit (Promega, Madison, WI, USA).

**Q.** With C[C@H](NC(=O)c1c(Cc2cccc(C(F)(F)F)c2)sc2c1CCOC2)c1ccc(C(=O)O)cc1 [L001] as the compound, how does the “PGE2-induced phosphorylation of ERK1/2” value [1] read?
**A.** significantly blocked

**Q.** And the IC50 [2]?
**A.** > 10000 nM

**Q.** And the IC50 [3]?
**A.** > 10000 nM

**Q.** What about the IC50 [4] of the same compound?
**A.** 3.2 ± 0.28 nM

**Q.** What about the IC50 [5] of the same compound?
**A.** 14.2 ± 0.88 nM

**Q.** And the “migrated cells in the lower layer of the transwell” value [6]?
**A.** reduced migrated cells

**Q.** What about the PGE2-triggered wound closure [7] of the same compound?
**A.** significantly blocked

**Q.** What about the “spheroid invasion morphology (filopodium-like protrusions)” value [8] of the same compound?
**A.** completely retracted PGE2-induced membrane surface projections

**Q.** What about the “spheroid invasion morphology (filopodium-like protrusions)” value [9] of the same compound?
**A.** completely retracted PGE2-induced membrane surface projections

**Q.** And the “mRNA expression levels of YAP, CYR61 and CTGF induced by PGE2, in comparison with E7046” value [10]?
**A.** stronger reductions

**Q.** What about the “PGE2-aroused upregulation of mRNA levels of Vimentin and Snail” value [11] of the same compound?
**A.** remarkably abrogated

**Q.** What about the “PGE2-mediated downregulation of E-cadherin's expression” value [11] of the same compound?
**A.** reversed

**Q.** What about the “mRNA expression levels of YAP, CYR61 and CTGF induced by PGE2, in comparison with E7046” value ([11]; PGE2 0.1 μM, compound 10 μM) of the same compound?
**A.** stronger reductions

**Q.** And the IC50 [12]?
**A.** 0.16 ± 0.03 nM
